Results: patent publication US20220211718A1, “BCL-2 INHIBITORS FOR USE IN THE TREATMENT OF A BCL-2 MEDIATED CANCER CARRYING THE GLY101VAL MUTATION” (LES LABORATOIRES SERVIER, priority 2019, published 2022)

How the values were obtained:
Bcl-2 Asp103Tyr mutant = Bcl-2 Asp103Tyr mutant (Homo sapiens, UniProt P10415, D103Y); test: Fluorescence quenching assay (PUMA quench reagent displacement), Example 4; type: binding; conditions: 50 nM peptide, about 2 hours at 18° C., ABT-199 inactive @1 μM
Text: […] […] […] […] […] […] […] […] […] […] […] […] […] […] […] […] […] […] […] […] […] […] […] […] […] […] […]

RS4;11 Bcl-2 G101V cells = test: In vitro cytotoxicity, CellTiter-Glo cell viability 72 h; type: cell-based; conditions: Homo sapiens, read-out: RS4;11 Bcl-2 G101V C50
Method: (§1) Cell lines were grown at 37° C. in a humidified atmosphere with 5% CO2 in media recommended by the suppliers. RS4;11 (ATCC® CRL1873™) were purchased from American Type Culture Collection (ATCC) and KMS-12-PE (ACC 606) from the Leibniz-Institute DSMZ (Braunschweig, Germany). Lentiviral particles containing Bcl-2 wild-type (also named ‘Bcl-2 VT’) and Bcl-2 mutated on G101V (also named ‘Bcl-2 G101V’) were cloned into pcLV-CMV-DEST-IRES-TagRFP. Lentiviral particles (1×10^6) were mixed with Polybrene at 8 μg/ml and transduced by spinoculation for 1 h at 32° C. and incubated overnight. After 8 days for KMS-12-PE and 21 days for RS4;11, TagRFP positive-cells were sorted by FACS. BCL2 expression was monitored by immunoblotting using anti-Flag and anti-BCL2 antibodies. Cells were seeded into 96-well plates and treated with 1:3.16 serial dilution of compounds (9 different concentrations). […] Results were normalized to the viability of cells without compounds (control wells). The C50 values were calculated using nonlinear regression algorithms in XCell software.

[1] = system: KMS-12-PE Bcl-2 G101V cells; test: as above; type: cell-based; conditions: Homo sapiens, read-out: KMS-12-PE Bcl-2 G101V C50
Method: as §1

KMS-12-PE Bcl-2 WT cells = test: as above; type: cell-based; conditions: Homo sapiens, read-out: KMS-12-PE Bcl-2 WT C50
Method: as §1

RS4;11 Bcl-2 WT cells = test: as above; type: cell-based; conditions: Homo sapiens, read-out: RS4;11 Bcl-2 WT C50
Method: as §1

[2] = system: KMS-12-PE Bcl-2 D103Y cells; test: In vitro cytotoxicity, CellTiter-Glo cell viability 72 h, Example 5; type: cell-based; conditions: Homo sapiens, read-out: KMS-12-PE Bcl-2 D103Y C50
Method: Cell lines were grown at 37° C. in a humidified atmosphere with 5% CO2 in media recommended by the suppliers. KMS-12-PE (ACC 606) from the Leibniz-Institute DSMZ (Braunschweig, Germany). Lentiviral particles containing Bcl-2 mutated on D103Y were cloned into pcLV-CMV-DEST-IRES-TagRFP. Lentiviral particles (1×10^6) were mixed with Polybrene at 8 μg/ml and transduced by spinoculation for 1 h at 32° C. and incubated overnight. TagRFP positive-KMS-12-PE cells were sorted by FACS after 8 days. Bcl-2 expression was monitored by immunoblotting using anti-Flag and anti-Bcl-2 antibodies. Cells were seeded into 96-well plates and treated at 9 points with 1:3.16 serial dilution of compounds. […] Results were normalized to the viability of cells without compounds (control wells). The C50 values were calculated using nonlinear Regression algorithms in XCell software.

Bcl-2 Asp103Tyr mutant, sequence (P10415 with tags, fused parts or gaps D103Y): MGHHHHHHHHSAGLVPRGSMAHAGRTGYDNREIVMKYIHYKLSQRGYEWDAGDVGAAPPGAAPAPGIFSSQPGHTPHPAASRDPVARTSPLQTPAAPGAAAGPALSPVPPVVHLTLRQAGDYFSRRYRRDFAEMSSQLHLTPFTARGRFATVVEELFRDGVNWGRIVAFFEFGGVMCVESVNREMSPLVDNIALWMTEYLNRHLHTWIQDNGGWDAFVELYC

Bel-2 Asp103Tyr mutant K1 mean (Bcl-2 Asp103Tyr mutant)	Structure (SMILES)	IC50 (RS4;11 Bcl-2 G101V cells) [nM]	IC50 [1] [nM]	IC50 (KMS-12-PE Bcl-2 WT cells) [nM]	IC50 (RS4;11 Bcl-2 WT cells) [nM]	IC50 [2] [nM]
inactive	CC1(C)CCC(CN2CCN(c3ccc(C(=O)NS(=O)(=O)c4ccc(NCC5CCOCC5)c([N+](=O)[O-])c4)c(Oc4cnc5[nH]ccc5c4)c3)CC2)=C(c2ccc(Cl)cc2)C1 [ABT-199, Venetoclax, reference compound]	130	931	22.5	10.7	1830
–	O=C(c1cc(-c2cc3c(cc2C(=O)N2Cc4ccccc4C[C@H]2CN2CCOCC2)OCO3)n2c1CCCC2)N(c1ccccc1)c1ccc(O)cc1 [Compound A, N-(4-hydroxyphenyl)-3-{6-[((3S)-3-(4-morpholinylmethyl)-3,4-dihydro-2(1H)-isoquinolinyl)carbonyl]-1,3-benzodioxol-5-yl}-N-phenyl-5,6,7,8-tetrahydro-1-indolizine carboxamide]	495	961	57.3	82.3	–
–	Cc1c(N(C(=O)c2cc(-c3cc(Cl)ccc3C(=O)N3Cc4ccccc4C[C@H]3CN3CCOCC3)n(C)c2C)c2ccc(O)cc2)cc(C#N)n1C [Compound B, 5-(5-chloro-2-{[(3S)-3-(morpholin-4-ylmethyl)-3,4-dihydroisoquinolin-2(1H)-yl]carbonyl}phenyl)-N-(5-cyano-1,2-dimethyl-1H-pyrrol-3-yl)-N-(4-hydroxyphenyl)-1,2-dimethyl-1H-pyrrole-3-carboxamide]	60.4	179	21	9.03	83.7
